Data: US8362031B2, “Lonidamine analogues and treatment of polycystic kidney disease” (University of Kansas, priority 2004, dated 2013)
Entries after “also recorded” stand apart in the source; their conditions may differ.

What was measured:
[1] = system: Male Long Evans rats; experiment: In vivo antispermatogenic testing in Long Evans rats; conditions: for Mortality (25 mg/kg) / Response 25 mg/kg: 25 mg/kg single i.p. injection; for Response 25 mg/kg / Response 200 mg/kg: animals responding out of animals surviving, five days following injection; for Mortality (200 mg/kg) / Response 200 mg/kg: 200 mg/kg single i.p. injection
[2] = system: rats; experiment: Toxicology: organs sectioned and examined after dosing; type: in vivo; conditions: two animals examined, findings per animal
Procedure: In at least two of the animals in each group, the pancreas, right kidney and part of the liver, heart, spleen, and lung were removed and evaluated for toxic effects.
The toxicology of animals receiving some of the compounds of the present invention IP and/or oral was examined. At the time of sacrifice samples of liver, pancreas, heart, lung, spleen and kidney were removed, visually inspected, and immersion fixed in Bouin's solution for a minimum of 48 hours. All organs were then sectioned and examined for evidence of necrosis, inflammation, hemorrhage, and possible tumors. The major veins in each tissue were also examined for distention, especially in the liver and pancreas, and any other abnormalities are compared to known histopathological states. In addition to the above, the heart was examined for evidence of fibrosis in the muscular walls, and to compare the thickness of the ventricular walls. The pancreas was examined mainly for calcium deposits, while the lung was checked for signs of any exudates or hemorrhage, especially in the alveolar spaces. Finally, the kidney was examined mainly for microscopic hemorrhages, tubular necrosis or alterations in the glomeruli in the cortex.
In this example, the effects of RC-MC-30 were compared with those of lonidamine in sexually mature rats. As discussed above, each of the rats (8 total) received a single injection and were sacrificed five days after injection and examined.

[3] = system: Salmonella Typhimurium TA 100; experiment: Ames test for mutagenicity (plate assay, colony count); conditions: 48 hours at 37° C.; for Ames test (+)S9 0.1 mg/pl. / Ames test (+)S9 1 mg/pl. / Ames test (+)S9 10 mg/pl.: (+)S9 mix; for Ames test (−)S9 0.1 mg/pl. / Ames test (−)S9 1 mg/pl. / Ames test (−)S9 10 mg/pl.: (−)S9 mix

SMILES	Mortality (25 mg/kg) [1]	Response 25 mg/kg [1]	Mortality (200 mg/kg) [1]	Response 200 mg/kg [1]	Toxicology: liver, lung, pancreas, spleen, heart and kidney (histology) ([2]; 25 mg/kg)	Toxicology: liver, lung, pancreas, spleen, heart and kidney (histology) ([2]; 200 mg/kg)	Ames test (+)S9 0.1 mg/pl. [3]	Ames test (+)S9 1 mg/pl. [3]	Ames test (+)S9 10 mg/pl. [3]	Ames test (−)S9 0.1 mg/pl. [3]	Ames test (−)S9 1 mg/pl. [3]	Ames test (−)S9 10 mg/pl. [3]	Toxicology: liver, lung, pancreas, spleen, heart and kidney (histology) ([2]; 25 mg/kg, listed as JSW-1-158)	Toxicology: liver, lung, pancreas, spleen, heart and kidney (histology) ([2]; 200 mg/kg, listed as JSW-1-158)	Toxicology: liver, lung, pancreas, spleen, heart and kidney (histology) ([2]; 25 mg/kg, listed as JSW-1-160)	Toxicology: liver, lung, pancreas, spleen, heart and kidney (histology) ([2]; 200 mg/kg, listed as JSW-1-160)	Toxicology: liver, lung, pancreas, spleen, heart and kidney (histology) ([2]; 200 mg/kg, listed as JSW-1-162)
COC(=O)c1nn(Cc2ccc(Cl)cc2Cl)c2cccnc12 [JWS-1-110]	0/5	0/5	0/5	0/5	The spleen had distended veins and necrosis in the white pulp; also recorded: The liver had distended portal veins with surrounding small patches of hepatic necrosis; also recorded: The lung contained scattered hemorrhagic areas around the alveoli and terminal bronchioles; also recorded: the spleen had distended veins and diminished amounts of white pulp containing necrotic cells	The liver showed distended portal veins with scattered, small patches of necrosis; also recorded: The lung contained multiple hemorrhagic areas throughout the alveoli, and terminal and respiratory bronchioles; also recorded: the spleen demonstrated distended veins, and diminished white pulp with necrotic cells; also recorded: The liver had distended veins, with scattered, small patches of necrosis throughout; also recorded: The pancreas had distended veins, but no other noticeable abnormalities	Pass	Pass	Pass	Pass	Pass	Pass	–	–	–	–	–
O=C(O)c1nn(Cc2ccc(Cl)cc2Cl)c2cccnc12 [JWS-1-114, 1-(2,4-dichlorobenzyl)-1H-pyrazolo[4,3-b]pyridine-3-carboxylic acid]	0/5	1/5	0/5	0/5	liver, lung, pancreas, spleen, heart and kidney that appeared within normal limits	The lung had massive pulmonary hemorrhaging around the bronchioles; also recorded: The liver had moderate sized (5-10 cell in diameter) necrotic patches generally in the periportal areas; also recorded: liver, lung, pancreas, spleen, heart and kidney that appeared within normal limits	Pass	Pass	Pass	Pass	Pass	Pass	–	–	–	–	–
COC(=O)c1nn(Cc2ccc(Cl)cc2Cl)c2cnccc12 [JWS-1-130, 1-(2,4-dichlorobenzyl)-1H-pyrazolo[3,4-c]pyridine-3-carboxylic acid methyl ester]	0/5	0/5	0/5	0/5	The liver appeared to have distended veins throughout, but no other abnormalities were noted; also recorded: The liver did have distended veins throughout, with small scattered patches of necrosis, usually located around the periportal areas	liver, lung, pancreas, spleen, heart and kidney all appeared within normal limits; also recorded: The liver did have distended veins throughout, with small scattered patches of necrosis, usually located around the periportal areas	Pass	Pass	Pass	Pass	Pass	Pass	–	–	–	–	–
COC(=O)c1nn(Cc2ccc(Cl)cc2Cl)c2ccc(OC)nc12 [JWS-1-142, 1-(2,4-dichlorobenzyl)-5-methoxy-1H-pyrazolo[4,3-b]pyridine-3-carboxylic acid methyl ester]	0/5	0/5	0/5	0/5	liver, lung, pancreas, spleen, heart and kidney all appeared within normal limits	The liver contained a small, confined cluster of lymphocytes in the parenchyma; also recorded: liver, lung, pancreas, spleen, heart and kidney all appeared within normal limits	Pass	Pass	Pass	Pass	Pass	Pass	–	–	–	–	–
COc1ccc2c(n1)c(C(=O)O)nn2Cc1ccc(Cl)cc1Cl [JWS-1-144, 1-(2,4-dichlorobenzyl)-5-methoxy-1H-pyrazolo[4,3-b]pyridine-3-carboxylic acid]	0/5	0/5	–	–	liver, lung, pancreas, spleen, heart and kidney that appeared within normal limits	–	Pass	Pass	Pass	Pass	Pass	Pass	–	–	–	–	–
COc1ccc2c(n1)c(C(=O)NN)nn2Cc1ccc(Cl)cc1Cl [JWS-1-146, 1-(2,4-dichlorobenzyl)-5-methoxy-1H-pyrazolo[4,3-b]pyridine-3-carboxylic acid hydrazide]	0/5	0/5	–	–	liver, lung, pancreas, spleen, heart and kidney that appeared within normal limits	–	Pass	Pass	Pass	Pass	Pass	Pass	–	–	–	–	–
COC(=O)c1nn(Cc2ccc(Cl)cc2Cl)c2cc(F)ccc12 [JWS-1-158, 1-(2,4-dichlorobenzyl)-6-fluoro-1H-indazole-3-carboxylic acid methyl ester]	0/5	4/5	0/5	5/5	–	–	Pass	Pass	Pass	Pass	Pass	Pass	liver, lung, pancreas, spleen, heart and kidney all appeared within normal limits; also recorded: The lung had thickening of the alveolar and bronchiole walls, and scattered areas of moderate sized hemorrhaging covering several adjacent alveoli	The pancreas had areas of lymphocytic infiltrates extending from the periphery inwards between the acinar cells; also recorded: liver, lung, pancreas, spleen, heart and kidney all appeared within normal limits	–	–	–
NNC(=O)c1nn(Cc2ccc(Cl)cc2Cl)c2cc(F)ccc12 [JWS-1-160, 1-(2,4-dichlorobenzyl)-6-fluoro-1H-indazole-3-carboxylic acid hydrazide]	0/5	3/5	2/5	3/3	–	–	Pass	Pass	Pass	Pass	Pass	Pass	–	–	The kidney does have scattered, small patches of tubular necrosis in the inner cortex; also recorded: The liver had several distended veins, but no other abnormalities were noted; also recorded: liver, lung, pancreas, spleen, heart and kidney all appeared within normal limits	The kidney did have scattered, small patches of tubular necrosis in the inner cortex; also recorded: liver, lung, pancreas, spleen, heart and kidney all appeared within normal limits	–
O=C(O)c1nn(Cc2ccc(Cl)cc2Cl)c2cc(F)ccc12 [JWS-1-162, 1-(2,4-dichlorobenzyl)-6-fluoro-1H-indazole-3-carboxylic acid]	–	–	–	–	liver, lung, pancreas, spleen, heart and kidney all appeared within normal limits	–	Pass	Pass	Pass	Pass	Pass	Pass	–	–	–	–	The lung had scattered hemorrhagic patches surrounding many of the small bronchioles; also recorded: The lung had moderate regions showing thickening of the alveolar walls, with a clear exudates slightly stained by eosin filling the alveoli
